Entries after “also recorded” stand apart in the source; their conditions may differ. Blank lines part the entries; values can stand above or below the compound they belong to.
What was measured:
[1] = system: glycosidases (human fibroblast lysates); assay: Stability of the glycosidic linkage to glycosidases on incubation with human fibroblast lysates; format: in vitro ADME; conditions: 4 h, 37° C., pH 4.5, compound solution 200 μM, gas chromatography
Method: The stability of the glyosidic linkage in compounds 2, 4, 6, 8, 10, 12, 14, 16, 18, 20, 22, 25, 27, 29, 32 and 34 selected as representative examples, upon incubation with human fibroblast lysates for 4 h was checked. For such purpose, cells were scraped into ice-cold H2O (10^6 cells mL^−1) and lysed by sonication. Insoluble materials were removed by centrifugation at 15,000 rpm for 5 min and protein concentrations were determined with Protein Assay Rapid Kit (WAKO, Tokyo, Japan). 10 μL of the lysates in 0.1% Triton X-100 in distilled water were incubated at 37° C. with 20 μL of the compound solution (200 μM) in 0.1 M citrate buffer, pH 4.5. In control experiments, the activity of several lysosomas glycosidases was confirmed using fluorescent substrates. The substrates were 4-methylumbelliferone (4-MU)-conjugated β-D-glucopyranoside (for GCase), α-D-glucopyranoside (for α-glucosidase), α-D-galactopyranoside (for α-Galase) and β-D-galactopyranoside (for β-galactosidase). The liberated 4-methylumbelliferone was measured in the black-well plate with a Perkin Elmer Luminescence Spectrometer (excitation wavelength: 340 nm; emission: 460 nm). No traces of the free polysubstituted 2-oxa-3-oxoindolizidine, which would result from hydrolysis of the glycolipid mimetics, was detected by gas chromatography upon trimethylsilylation, confirming the stability of the compounds to the action of the glycosidases.

Splenocytes [2] = assay: Suppression of LPS-induced inflammation (splenocytes in vitro); format: cell-based, mouse; conditions: splenocytes treated concurrently with compound and LPS, FIG. 1
Method: FIG. 1. […] Splenocytes were treated concurrently with the compounds of the invention and LPS to assess the suppressive function of compounds on LPS-induced inflammation, with several compounds showing prominent suppressive function.
(§1) The whole spleen was surgically removed from a mouse and mechanically dissociated into a single cell suspension of splenocytes, which were then cultured in the complete RPMI 1640 medium (cRPMI). Human peripheral blood mononuclear cells (PBMCs) from healthy volunteers were collected from whole blood through gradient-centrifugation with Histopaque-1077 (Sigma-Aldrich).
Splenocytes were treated concurrently with the compounds of the invention and LPS to assess the suppressive function of compounds on LPS-induced inflammation.

[3] = system: bone marrow-derived macrophages (BMDM); assay: Suppression of LPS-induced inflammation (BMDM in vitro); format: cell-based; conditions: FIG. 2; for suppression of IL-6 / suppression of TNFα: LPS-induced, BMDM; for suppression of IL-6: 50 μM; for suppression of TNFα: 10 and 50 μM
From the text: Since macrophage is the major responder to LPS-induced inflammation, we assessed the capability of selected compounds to suppress LPS-induced inflammation in bone marrow-derived macrophages (BMDM).

[4] = system: ERK and p38 of the MAPK family, JNK and STAT3; assay: Signal transduction by multiplex bead array (phosphorylation versus LPS treatment alone); format: cell-based; conditions: compared to LPS treatment alone, 30 min post-treatment, FIG. 4
From the text: FIG. 4. […] Compounds 4 and 14, the representative compounds of the invention, were examined in term of signal transduction to explore how the new compounds exert their suppressive effect, using the multiplex bead array.
Using the multiplex bead array, we examined how the new compounds might exert their suppressive effect in term of signal transduction.

[5] = system: OVA-induced AHR mouse model; assay: OVA-induced airway hyperreactivity (AHR) and airway inflammation mouse model; format: in vivo; conditions: for suppression of OVA-induced airway hyperreactivity (AHR): OVA-induced AHR mouse model, FIG. 7; for suppression of IL-4 mRNA level in lungs / suppression of IL-13 mRNA level in lungs: lung mRNA, FIG. 10
Method: For ovalbumin (OVA) challenge, mice were sensitized intraperitoneally (i.p.) with 50 μg of OVA with 2% alhydrogel adjuvant (InvivoGen). Mice were challenged three times with 50 μg of OVA on day 7 post-sensitization, either daily or every other day. Mice were sacrificed the day after the last OVA challenge.
Mice were anesthetized with 100 mg per kg body weight pentobarbital (Sigma-Aldrich), tracheotomised and mechanically ventilated via the FinePointe RC system (Buxco Research Systems, Wilmington, NC). Lung function was assessed by measuring lung resistance and dynamic compliance in response to increasing doses of aerosolized methacholine (1.25-40 mg/mL, Sigma-Aldrich).
Upon exposure of the trachea, the lungs were lavaged twice with 1 mL of PBS supplemented with 2% fetal calf serum (FCS). BALF was pooled and BAL cells were pelleted by centrifugation and fixed onto cytospin slides. The slides were stained with Diff-Quik solution (Polysciences Inc) and BAL differential cell count was performed.
Using the Th2 OVA-induced AHR mouse model, we assessed the capability of selected compounds 14 and 29 in suppressing Th2 inflammation.

B6 mice [6] = assay: Suppression of LPS-induced inflammation in vivo; conditions: injected twice in a half hour time after LPS-treatment, FIG. 3
Method: FIG. 3. […] The in vivo capability of compound 29 in suppressing LPS-induced inflammation in B6 mice was assessed as indicated in the scheme.
To determine the anti-inflammatory function in vivo, we assessed the capability of compound 29 in suppressing LPS-induced inflammation in B6 mice.

Splenocytes [7] = assay: Immune-stimulating function of compounds alone (splenocytes in vitro); format: cell-based, mouse; conditions: splenocytes treated with compound alone, FIG. 6
Method: FIG. 6. […] Splenocytes were treated with the compounds of the invention alone to assess the immune-stimulating function of the compounds.
as §1
Splenocytes were treated with the compounds of the invention alone to assess the immune-stimulating function of the compounds by measuring their ability to promote the secretions of IFN-γ and IL-4.

B6 mice [8] = assay: Adjuvancy function of compounds in vivo (serum IFNγ and IL-4); conditions: FIG. 11
Method: FIG. 11. […] The adjuvancy capability of the selected compound 29 in vivo was assessed by measuring the serum level of IFNγ and IL-4 induced after injecting them into B6 mice.
Besides assessing the ability of the new compounds to suppress inflammation, we also looked into their function to act as adjuvants, i.e. their ability to promote desirable immunological trends in the development of vaccines. We measured the in vivo adjuvancy capability of selected compounds 29 in inducing IFNγ and IL-4 in B6 mice (FIG. 11).

[9] = bronchoalveolar lavage fluid, FIG. 8

free polysubstituted 2-oxa-3-oxoindolizidine from hydrolysis of the glycolipid mimetic (stability to glycosidases) [1]: No traces
SMILES: CCCCCCCCOS(=O)(=O)N[C@@H]1C(O)[C@@H](O)[C@H](O)C2COC(=O)N21 (stereo partly shown) [Compound 16]

free polysubstituted 2-oxa-3-oxoindolizidine from hydrolysis of the glycolipid mimetic (stability to glycosidases) [1]: No traces
SMILES: CCCCCCCCCCCCOS(=O)(=O)N[C@@H]1C(O)[C@@H](O)[C@H](O)C2COC(=O)N21 (stereo partly shown) [Compound 18]

free polysubstituted 2-oxa-3-oxoindolizidine from hydrolysis of the glycolipid mimetic (stability to glycosidases) [1]: No traces
SMILES: CCCCCCCCS(=O)(=O)N[C@@H]1C(O)[C@@H](O)[C@H](O)C2COC(=O)N21 (stereo partly shown) [Compound 22]

free polysubstituted 2-oxa-3-oxoindolizidine from hydrolysis of the glycolipid mimetic (stability to glycosidases) [1]: No traces
SMILES: CCCCCCCCCCCCCCCCOS(=O)(=O)N[C@@H]1C(O)[C@@H](O)[C@H](O)C2COC(=O)N21 (stereo partly shown) [Compound 20]

free polysubstituted 2-oxa-3-oxoindolizidine from hydrolysis of the glycolipid mimetic (stability to glycosidases) [1]: No traces
SMILES: CCCCCCCCCCCCCCCCNS(=O)(=O)N[C@@H]1C(O)[C@@H](O)[C@H](O)C2COC(=O)N21 (stereo partly shown) [Compound 14]
suppression of LPS-induced inflammation (Splenocytes [2]): prominent inflammation-suppressing function
suppression of LPS-induced inflammation in BMDM [3]: efficient in suppressing LPS-induced inflammation
suppression of IL-6 [3]: significant suppression
suppression of TNFα [3]: significant suppression
phosphorylation of ERK [4]: significantly reduced
phosphorylation of JNK [4]: but not JNK
phosphorylation of STAT3 [4]: significant reduction
phosphorylation of p38 [4]: significantly reduced
suppression of OVA-induced airway hyperreactivity (AHR) [5]: can suppress AHR onset
suppression of IL-4 mRNA level in lungs [5]: significantly suppressed
suppression of IL-13 mRNA level in lungs [5]: significantly suppressed

free polysubstituted 2-oxa-3-oxoindolizidine from hydrolysis of the glycolipid mimetic (stability to glycosidases) [1]: No traces
SMILES: CCCCCCCCCCCCNC(=[Se])N[C@@H]1C(O)[C@@H](O)[C@H](O)C2COC(=O)N21 (stereo partly shown) [Compound 29]
suppression of LPS-induced inflammation (Splenocytes [2]): prominent inflammation-suppressing function
suppression of LPS-induced serum TNFα (B6 mice [6]): significantly suppressed; also recorded: significantly suppressing
IFNγ secretion (Splenocytes [7]): effective in promoting; also recorded: induced significant IFNγ secretion
IL-4 secretion (Splenocytes [7]): but not IL-4
suppression of OVA-induced airway hyperreactivity (AHR) [5]: suppress AHR significantly
suppression of IL-4 level in BALF [5, 9]: suppress both IL-13 and IL-4 levels significantly
suppression of IL-13 level in BALF [5, 9]: suppress both IL-13 and IL-4 levels significantly
suppression of IL-4 mRNA level in lungs [5]: significantly suppressed
suppression of IL-13 mRNA level in lungs [5]: significantly suppress; also recorded: significantly suppressed
suppression of IL-13 protein level in lungs ([5]; lung protein, FIG. 9): significantly suppress; also recorded: significant suppression
induction of serum IFNγ (B6 mice [8]; 2 hours after injection): significant capability
induction of serum IL-4 (B6 mice [8]; 2 hours after injection): significant capability
serum IFNγ level (B6 mice [8]; 18 hours after injection): significant detectable level

free polysubstituted 2-oxa-3-oxoindolizidine from hydrolysis of the glycolipid mimetic (stability to glycosidases) [1]: No traces
SMILES: CCCCCCCCCCCCCCCCNC(=[Se])N[C@@H]1C(O)[C@@H](O)[C@H](O)C2COC(=O)N21 (stereo partly shown) [Compound 32]

Further lines, the compound ahead of its results:

SMILES: CCCCCCCCCCCCOP(=O)(N[C@@H]1C(O)[C@@H](O)[C@H](O)C2COC(=O)N21)OCCCCCCCCCCCC (stereo partly shown) [Compound 6]
free polysubstituted 2-oxa-3-oxoindolizidine from hydrolysis of the glycolipid mimetic (stability to glycosidases) [1]: No traces
suppression of LPS-induced inflammation (Splenocytes [2]): prominent inflammation-suppressing function

SMILES: CCCCCCCCCCCCNC(=S)N[C@@H]1C(O)[C@@H](O)[C@H](O)C2COC(=O)N21 (stereo partly shown) [Compound 27]
free polysubstituted 2-oxa-3-oxoindolizidine from hydrolysis of the glycolipid mimetic (stability to glycosidases) [1]: No traces
suppression of LPS-induced inflammation (Splenocytes [2]): prominent inflammation-suppressing function

SMILES: CCCCCCCCCCCCOC(=S)N[C@@H]1C(O)[C@@H](O)[C@H](O)C2COC(=O)N21 (stereo partly shown) [Compound 34]
free polysubstituted 2-oxa-3-oxoindolizidine from hydrolysis of the glycolipid mimetic (stability to glycosidases) [1]: No traces

SMILES: CCCCNS(=O)(=O)N[C@@H]1C(O)[C@@H](O)[C@H](O)C2COC(=O)N21 (stereo partly shown) [Compound 8]
free polysubstituted 2-oxa-3-oxoindolizidine from hydrolysis of the glycolipid mimetic (stability to glycosidases) [1]: No traces

SMILES: CCCCCCCCOP(=O)(N[C@@H]1C(O)[C@@H](O)[C@H](O)C2COC(=O)N21)OCCCCCCCC (stereo partly shown) [Compound 4]
free polysubstituted 2-oxa-3-oxoindolizidine from hydrolysis of the glycolipid mimetic (stability to glycosidases) [1]: No traces
suppression of LPS-induced inflammation (Splenocytes [2]): prominent inflammation-suppressing function
suppression of LPS-induced inflammation in BMDM [3]: efficient in suppressing LPS-induced inflammation
suppression of IL-6 [3]: significant suppression
suppression of TNFα [3]: significant suppression
phosphorylation of ERK [4]: significantly reduced
phosphorylation of JNK [4]: but not JNK
phosphorylation of p38 [4]: significantly reduced

SMILES: CCCCCCCCNC(=[Se])N[C@@H]1C(O)[C@@H](O)[C@H](O)C2COC(=O)N21 (stereo partly shown) [Compound 25]
free polysubstituted 2-oxa-3-oxoindolizidine from hydrolysis of the glycolipid mimetic (stability to glycosidases) [1]: No traces

SMILES: CCCCCCCCCCCCNS(=O)(=O)N[C@@H]1C(O)[C@@H](O)[C@H](O)C2COC(=O)N21 (stereo partly shown) [Compound 12]
free polysubstituted 2-oxa-3-oxoindolizidine from hydrolysis of the glycolipid mimetic (stability to glycosidases) [1]: No traces

SMILES: CCOP(=O)(N[C@@H]1C(O)[C@@H](O)[C@H](O)C2COC(=O)N21)OCC (stereo partly shown) [Compound 2]
free polysubstituted 2-oxa-3-oxoindolizidine from hydrolysis of the glycolipid mimetic (stability to glycosidases) [1]: No traces

SMILES: CCCCCCCCNS(=O)(=O)N[C@@H]1C(O)[C@@H](O)[C@H](O)C2COC(=O)N21 (stereo partly shown) [Compound 10]
free polysubstituted 2-oxa-3-oxoindolizidine from hydrolysis of the glycolipid mimetic (stability to glycosidases) [1]: No traces

From US20250186409A1, “5-AMINOHEXAHYDRO-6,7,8-TRIHYDROXY-3H-OXAZOLO[3,4-A]PYRIDIN-3-ONE DERIVATIVES DERIVATIVES AS TLR4 MODULATORS FOR THE TREATMENT OF IMMUNE DISEASES” (CONSEJO SUPERIOR DE INVESTIGACIONES CIENTÍFICAS (CSIC), priority 2021, published 2025)
